Results: PubChem BioAssay (NCI)
Values joined by “and” are separate entries in the source; they are usually repeats but may differ in a detail not shown here. Equal entries are not always repeated.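 Cells were grown in 96-well plates and exposed to each compound for 48 hours at five concentrations; endpoints were interpolated linearly between bracketing concentrations, or set to the highest concentration if not reached. Here, GI50 denotes the concentration required for 50% inhibition of growth. TGI: concentration producing complete growth inhibition.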

Tests used:
Test in all cases: NCI anticancer screen, dose series, 48 h
[1] = system: MDA-MB-435
[2] = system: EKVX NSCLC
[3] = system: RPMI-8226 leukemia
[4] = system: SK-MEL-2 melanoma
[5] = system: MCF7 breast
[6] = system: OVCAR-5 ovarian
[7] = system: HCC-2998 colon
[8] = system: OVCAR-4 ovarian
[9] = system: LOX IMVI melanoma
[10] = system: NCI-H460 lung

| Compound | TGI [1] | TGI [2] | TGI [3] | TGI [4] | TGI [5] | TGI [6] | TGI [7] | TGI [8] | TGI [9] | TGI [10] | GI50 [1] | GI50 [2] | GI50 [3] | GI50 [4] | GI50 [7] | GI50 [8] | GI50 [9] | GI50 [10] | GI50 [5] | GI50 [6] |
| --- | --- | --- | --- | --- | --- | --- | --- | --- | --- | --- | --- | --- | --- | --- | --- | --- | --- | --- | --- | --- |
| CCCOc1ccc(-c2nc(-c3ccc(N=Cc4ccc(N(CCOS(C)(=O)=O)CCOS(C)(=O)=O)cc4C)cc3)cs2)cc1 | > 100 µM | 56.9 µM | > 100 µM | 50.9 µM | > 100 µM | > 71.7 µM | 26.8 µM | 81.9 µM | 66.8 µM | 24 µM | – | – | – | – | – | – | – | – | – | – |
| C[C@H](N)C(=O)N[C@@H]1[C@H]2C(=C(O)C[C@@H](O)[C@@H]2O)C(=O)O[C@]1(C)C(Cl)Cl | 3.42 µM and 0.86 µM | 4.66 µM and 2.23 µM | 2.57 µM and 2.35 µM | 1.49 µM and 0.958 µM | 1.52 µM | 7.44 µM and 3.44 µM | 0.745 µM and 1.16 µM | 3.03 µM and 0.841 µM | 0.454 µM and 0.675 µM | 1.4 µM and 1.2 µM | 0.309 µM | 0.472 µM | 0.261 µM and 0.161 µM | 0.308 µM | 0.224 µM | 0.263 µM | 0.106 µM | 0.146 µM | – | – |
| CCNCCC1(CC)C(=O)NC(=O)NC1=O | > 100 µM | > 100 µM | > 100 µM | > 100 µM | > 100 µM | > 100 µM | > 100 µM | > 100 µM | > 100 µM | > 100 µM | – | – | – | – | > 100 µM | – | – | – | – | – |
| CNC(=O)c1c(NC(=O)c2ccc(C(F)(F)F)cc2)sc2c1CCC(=O)C2 | 3.55 µM | 6.05 µM | 0.884 µM | 5.46 µM | 4.13 µM | 2.76 µM | 4.12 µM | 1.92 µM | 2.27 µM | 4.19 µM | 0.818 µM | 0.89 µM | 0.272 µM | 1.36 µM | 1.09 µM | 0.604 µM | 0.361 µM | 0.89 µM | 0.837 µM | 0.607 µM |
| CC(C)CCSC1=CC(=O)c2ccccc2C1=O | 13.8 µM | 16.6 µM | 0.304 µM | 17.3 µM | 3.63 µM | 34 µM | 45.7 µM | 3.05 µM | 15.6 µM | 42.9 µM | 3.88 µM | 4.5 µM | 0.0469 µM | 6.73 µM | 21.5 µM | 1.57 µM | 3.56 µM | 16.7 µM | 1.42 µM | 18.1 µM |
| CN[C@@H](C)C(=O)N[C@H]1CN(C(=O)CC(C)C)CC[C@H]2CC[C@@H](C(=O)NC(c3ccccc3)c3ccccc3)N2C1=O | > 100 µM | > 100 µM | > 100 µM | > 100 µM | > 100 µM | > 100 µM | > 100 µM | 8.42 µM | > 100 µM | > 100 µM | > 100 µM | > 100 µM | > 74.9 µM | 43.7 µM | > 100 µM | 0.664 µM | > 100 µM | > 100 µM | > 100 µM | > 100 µM |
| CCN(CC)c1ccc(C2CC(c3cc(OC)c(OC)c(OC)c3)=NN2)cc1 (configuration not stated) | > 100 µM | – | 7.91 µM | > 95.5 µM | – | > 100 µM | > 27 µM | > 100 µM | > 42 µM | 11.8 µM | 0.404 µM | 0.305 µM | 0.632 µM | 6.6 µM | 1.15 µM | 4.34 µM | 0.83 µM | 0.331 µM | 0.227 µM | 5.12 µM |
| COc1c2ccoc2cc2oc(=O)ccc12 | > 100 µM | > 100 µM | > 100 µM | > 100 µM | > 100 µM | > 100 µM | > 100 µM | > 100 µM | > 100 µM | > 100 µM | – | – | – | – | – | – | – | – | – | – |
| Cc1ncc(C(=O)Nc2ccc(CN3CCN(C)CC3)c(C(F)(F)F)c2)cc1C#Cc1cnc(N)c2cnccc12 | 4.11 µM | 12.9 µM | 2.13 µM | 0.0941 µM | 3.69 µM | 10.6 µM | 15.2 µM | 4.25 µM | 0.158 µM | 1.54 µM | 0.0261 µM | 0.358 µM | 0.249 µM | 0.0243 µM | 0.133 µM | 0.0447 µM | 0.0335 µM | 0.0647 µM | 1.18 µM | 0.076 µM |
| NCCCCCCCCn1c2c(c3ccccc3c1=O)C(=O)c1ccccc1-2 | 21.5 µM | 44.7 µM | 23.7 µM | 6.98 µM | 46.2 µM | 7.89 µM | 3.75 µM | 27.4 µM | > 100 µM | 24.8 µM | 5.63 µM | 17.4 µM | 4.02 µM | 2.83 µM | 1.89 µM | 4.34 µM | 3.64 µM | 3.66 µM | 7.45 µM | 2.67 µM |
| COc1cc(-c2nc(NC(C)=O)sc2-c2ccnc(NCCNS(=O)(=O)c3ccccc3)n2)ccc1Cl | 3.45 µM | > 100 µM | > 100 µM | 6.23 µM | > 100 µM | > 100 µM | > 100 µM | > 100 µM | > 100 µM | 10.8 µM | 0.799 µM | 5.25 µM | 3.77 µM | 2.42 µM | 20.9 µM | 3.58 µM | 4.41 µM | 3.08 µM | 2.4 µM | 9.77 µM |
| C#CCSc1n[nH]c(-c2ccco2)n1 | > 100 µM | > 100 µM | > 100 µM | > 100 µM | > 100 µM | > 100 µM | > 100 µM | > 100 µM | > 100 µM | > 100 µM | – | – | – | – | – | – | – | – | – | – |
| O=C(CCCCCCCn1cc(-c2cccnc2)nn1)Nc1ccccc1-c1ccccc1 | 13.2 µM | > 100 µM | > 77.9 µM | 38.1 µM | 51.5 µM | > 100 µM | > 61.8 µM | > 100 µM | > 100 µM | > 100 µM | 0.305 µM | 10.5 µM | 0.401 µM | 5.52 µM | 0.385 µM | 10.9 µM | 4.05 µM | 0.674 µM | 3.36 µM | 0.422 µM |
